IC50 data for 19 compounds are collected here from patent US11702422B2, “Imidazopyridazines as modulators of IL-17” (Janssen Pharmaceutica NV, priority 2020, dated 2023).

As a reminder, the IC50 is the midpoint of a concentration-inhibition curve. Higher therefore signals a need for much substance.

Each structure is given as a SMILES string.

The target in experiment [1] is IL-17A(FLAG-Tagged): IL-17RA(His-Tagged) (Homo sapiens, UniProt Q16552, K93Q). Kind of experiment: IL-17A(FLAG-Tagged): IL-17RA(His-Tagged) Binding Disruption Eu-HTRF Assay. The settings on record: IL-17A/IL-17RA binding disruption, simple average if tested more than once. The method in brief: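 IC50 comes from a one-site competition fit of the HTRF 665/620 nm ratio. Compound dilutions (2-fold, 22 points) were held 1 h rt with FLAG-tagged IL-17A dimer, then His-tagged IL-17RA plus Eu-cryptate anti-FLAG and D2 anti-His antibodies were added for 2 h rt.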
UniProt Q16552, sequence (Q16552 with tags, fused parts or gaps K93Q): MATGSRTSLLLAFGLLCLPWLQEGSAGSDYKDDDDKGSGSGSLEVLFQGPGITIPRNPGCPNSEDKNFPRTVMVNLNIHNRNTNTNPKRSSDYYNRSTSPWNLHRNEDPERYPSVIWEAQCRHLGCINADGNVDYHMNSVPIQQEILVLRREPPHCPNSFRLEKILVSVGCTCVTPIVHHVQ
A general note: Time-resolved FRET reads energy transfer from a long-lived donor to a nearby acceptor.

Experiment [2] relates to IL-17A-induced G-CSF production in human normal keratinocyte (NHK). Kind of experiment: NHK Assay: IL-17A-induced G-CSF production in human normal keratinocytes. It counts as cell-based. The settings on record: adult normal human keratinocytes, IL-17A 5 ng/mL, 24 h, simple average if tested more than once. In short, it runs like this: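 HTRF read-out of supernatant G-CSF, quantified from a standard curve, gave IC50 values. Adult keratinocytes, 3000-4000 cells/well, received human IL-17A (5 ng/mL final) pre-mixed 1 h at rt with compound, in 5% FBS and 0.2% DMSO, 24 h at 37° C.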

On to `CC(CC(=O)N[C@@H](c1cnn2cc([C@@H](NC(=O)c3nonc3C3CC3)C3CCC(F)(F)CC3)nc2c1)C1CC1)C(F)(F)F` (single isomer, unassigned) [Example 300, 4-Cyclopropyl-N—((S)-(7-((R)-cyclopropyl((R*)-4,4,4-trifluoro-3-methylbutanamido)methyl)imidazo[1,2-b]pyridazin-2-yl)(4,4-difluorocyclohexyl)methyl)-1,2,5-oxadiazole-3-carboxamide], for which the figures for the half-inhibitory concentration (IC50) in experiment [1] and in experiment [2] were 110 nM and 320 nM, respectively.

Regarding `CC(CC(=O)N[C@@H](c1cnn2cc([C@@H](NC(=O)c3nonc3C3CC3)C3CCC(F)(F)CC3)nc2c1)C1CC1)C(F)(F)F` (single isomer, unassigned) [Example 301, 4-Cyclopropyl-N—((S)-(7-((R)-cyclopropyl((S*)-4,4,4-trifluoro-3-methylbutanamido)methyl)imidazo[1,2-b]pyridazin-2-yl)(4,4-difluorocyclohexyl)methyl)-1,2,5-oxadiazole-3-carboxamide], the concentration for half-maximal inhibition (IC50) was 53 nM in experiment [1] and 56 nM in experiment [2].

Take `CC(C)n1nccc1C(=O)N[C@H](c1cn2ncc([C@H](NC(=O)CO[C@@H](C)C(F)(F)F)C3CC3)cc2n1)C1CCC(F)(F)CC1` (single isomer, unassigned) [Example 310]: the 50% inhibitory concentration (IC50) was 170 nM in experiment [1] and 220 nM in experiment [2] (Homo sapiens, Keratinocyte).

For `CC(C)n1nccc1C(=O)N[C@H](c1cn2ncc([C@H](NC(=O)CO[C@H](C)C(F)(F)F)C3CC3)cc2n1)C1CCC(F)(F)CC1` (single isomer, unassigned) [Example 311], the half-maximal inhibitory concentration (IC50) in experiment [1] was determined as 210 nM; in experiment [2] (Homo sapiens, Keratinocyte) it was 330 nM.

In the case of `Cc1nonc1C(=O)N[C@@H](COC(C)(C)C)c1cn2ncc(C(NC(=O)CCC(F)(F)F)C3CC3)cc2n1` (single isomer, unassigned) [Example 314, N—((R)-2-(tert-Butoxy)-1-(7-((R*)-cyclopropyl(4,4,4-trifluorobutanamido)methyl)imidazo[1,2-b]pyridazin-2-yl)ethyl)-4-methyl-1,2,5-oxadiazole-3-carboxamide], the IC50 is 560 nM in experiment [1] and 2100 nM in experiment [2].

As for `Cc1nonc1C(=O)N[C@@H](COC(C)(C)C)c1cn2ncc(C(NC(=O)CCC(F)(F)F)C3CC3)cc2n1` (single isomer, unassigned) [Example 315, N—((R)-2-(tert-Butoxy)-1-(7-((S*)-cyclopropyl(4,4,4-trifluorobutanamido)methyl)imidazo[1,2-b]pyridazin-2-yl)ethyl)-4-methyl-1,2,5-oxadiazole-3-carboxamide], the 50% inhibitory concentration (IC50) was 13000 nM in experiment [1] and over 20000 nM in experiment [2].

`CC(C)n1nccc1C(=O)N[C@@H](COC(C)(C)C)c1cn2ncc(C(NC(=O)CCC(F)(F)F)C3CC3)cc2n1` (single isomer, unassigned) [Example 316, N—((R)-2-(tert-Butoxy)-1-(7-((R*)-cyclopropyl(4,4,4-trifluorobutanamido)methyl)imidazo[1,2-b]pyridazin-2-yl)ethyl)-1-isopropyl-1H-pyrazole-5-carboxamide]: the IC50 came out at 240 nM in experiment [1] and 700 nM in experiment [2].

Consider `CC(C)n1nccc1C(=O)N[C@@H](COC(C)(C)C)c1cn2ncc(C(NC(=O)CCC(F)(F)F)C3CC3)cc2n1` (single isomer, unassigned) [Example 317, N—((R)-2-(tert-Butoxy)-1-(7-((S*)-cyclopropyl(4,4,4-trifluorobutanamido)methyl)imidazo[1,2-b]pyridazin-2-yl)ethyl)-1-isopropyl-1H-pyrazole-5-carboxamide], for which the half-inhibitory concentration (IC50) in experiment [1] was 9900 nM; in experiment [2], over 20000 nM.

For `Cc1nonc1C(=O)N[C@H](c1cn2ncc([C@H](NC(=O)CC3CC(F)(F)C3(F)F)C3CC3)cc2n1)C1CCC(F)(F)CC1` (single isomer, unassigned) [Example 324, N—((S)-(7-((R)-Cyclopropyl(2-((R*)-2,2,3,3-tetrafluorocyclobutyl)acetamido)methyl)imidazo[1,2-b]pyridazin-2-yl)(4,4-difluorocyclohexyl)methyl)-4-methyl-1,2,5-oxadiazole-3-carboxamide], the half-inhibitory concentration (IC50) stood at 61 nM in experiment [1] and 300 nM in experiment [2] (Homo sapiens, Keratinocyte).

For `Cc1nonc1C(=O)N[C@H](c1cn2ncc([C@H](NC(=O)CC3CC(F)(F)C3(F)F)C3CC3)cc2n1)C1CCC(F)(F)CC1` (single isomer, unassigned) [Example 325, N—((S)-(7-((R)-Cyclopropyl(2-((S*)-2,2,3,3-tetrafluorocyclobutyl)acetamido)methyl)imidazo[1,2-b]pyridazin-2-yl)(4,4-difluorocyclohexyl)methyl)-4-methyl-1,2,5-oxadiazole-3-carboxamide], the values for the IC50 in experiment [1] and in experiment [2] were 91 nM and 300 nM, respectively.

In the case of `Cc1nonc1C(=O)N[C@H](c1cn2ncc([C@H](NC(=O)C(C)CC(F)F)C3CC3)cc2n1)C1CCC(F)(F)CC1` (single isomer, unassigned) [Example 329, N—((S)-(7-((R)-Cyclopropyl((S*)-4,4-difluoro-2-methylbutanamido)methyl)imidazo[1,2-b]pyridazin-2-yl)(4,4-difluorocyclohexyl)methyl)-4-methyl-1,2,5-oxadiazole-3-carboxamide], the IC50 in experiment [1] amounted to 930 nM; in experiment [2] (Homo sapiens, Keratinocyte) it was 2200 nM.

Take `Cc1nonc1C(=O)N[C@H](c1cn2ncc([C@H](NC(=O)C(C)CC(F)F)C3CC3)cc2n1)C1CCC(F)(F)CC1` (single isomer, unassigned) [Example 330, N—((S)-(7-((R)-Cyclopropyl((R*)-4,4-difluoro-2-methylbutanamido)methyl)imidazo[1,2-b]pyridazin-2-yl)(4,4-difluorocyclohexyl)methyl)-4-methyl-1,2,5-oxadiazole-3-carboxamide]: the results for the IC50 in experiment [1] and in experiment [2] were 560 nM and 2200 nM, respectively.

As for `Cc1nonc1C(=O)N[C@H](c1cn2ncc([C@H](NC(=O)C(F)C3CC3)C3CC3)cc2n1)C1CCC(F)(F)CC1` (single isomer, unassigned) [Example 331, N—((S)-(7-((R)-Cyclopropyl((R*)-2-cyclopropyl-2-fluoroacetamido)methyl)imidazo[1,2-b]pyridazin-2-yl)(4,4-difluorocyclohexyl)methyl)-4-methyl-1,2,5-oxadiazole-3-carboxamide], the results for the IC50 in experiment [1] and in experiment [2] were 310 nM and 1500 nM, respectively.

`Cc1nonc1C(=O)N[C@H](c1cn2ncc([C@H](NC(=O)C(F)C3CC3)C3CC3)cc2n1)C1CCC(F)(F)CC1` (single isomer, unassigned) [Example 332, N—((S)-(7-((R)-Cyclopropyl((S*)-2-cyclopropyl-2-fluoroacetamido)methyl)imidazo[1,2-b]pyridazin-2-yl)(4,4-difluorocyclohexyl)methyl)-4-methyl-1,2,5-oxadiazole-3-carboxamide]: the figures for the concentration for half-maximal inhibition (IC50) in experiment [1] and in experiment [2] were 1500 nM and 12000 nM, respectively.

Regarding `CCC(CC(=O)N[C@@H](c1cnn2cc([C@@H](NC(=O)c3nonc3C)C3CCC(F)(F)CC3)nc2c1)C1CC1)CC(F)(F)F` (single isomer, unassigned) [Example 342, N—((S)-(7-((R)-Cyclopropyl((R*)-3-ethyl-5,5,5-trifluoropentanamido)methyl)imidazo[1,2-b]pyridazin-2-yl)(4,4-difluorocyclohexyl)methyl)-4-methyl-1,2,5-oxadiazole-3-carboxamide], the figures for the concentration for half-maximal inhibition (IC50) in experiment [1] and in experiment [2] were 340 nM and 1400 nM, respectively.

Turning to `CCC(CC(=O)N[C@@H](c1cnn2cc([C@@H](NC(=O)c3nonc3C)C3CCC(F)(F)CC3)nc2c1)C1CC1)CC(F)(F)F` (single isomer, unassigned) [Example 343, N—((S)-(7-((R)-Cyclopropyl((S*)-3-ethyl-5,5,5-trifluoropentanamido)methyl)imidazo[1,2-b]pyridazin-2-yl)(4,4-difluorocyclohexyl)methyl)-4-methyl-1,2,5-oxadiazole-3-carboxamide], the IC50 in experiment [1] is 170 nM; in experiment [2] it was 430 nM.

On to `Cc1nonc1C(=O)N[C@H](c1cn2ncc([C@H](NC(=O)C(F)CC3CC3)C3CC3)cc2n1)C1CCC(F)(F)CC1` (single isomer, unassigned) [Example 344, N—((S)-(7-((R)-Cyclopropyl((R*)-3-cyclopropyl-2-fluoropropanamido)methyl)imidazo[1,2-b]pyridazin-2-yl)(4,4-difluorocyclohexyl)methyl)-4-methyl-1,2,5-oxadiazole-3-carboxamide], for which the concentration for half-maximal inhibition (IC50) in experiment [1] is 52 nM; in experiment [2], 230 nM.

Take `Cc1nonc1C(=O)N[C@H](c1cn2ncc([C@H](NC(=O)C(F)CC3CC3)C3CC3)cc2n1)C1CCC(F)(F)CC1` (single isomer, unassigned) [Example 345, N—((S)-(7-((R)-Cyclopropyl((S*)-3-cyclopropyl-2-fluoropropanamido)methyl)imidazo[1,2-b]pyridazin-2-yl)(4,4-difluorocyclohexyl)methyl)-4-methyl-1,2,5-oxadiazole-3-carboxamide]: the concentration for half-maximal inhibition (IC50) in experiment [1] was determined as 180 nM; in experiment [2], 670 nM.

For the compound `Cc1nonc1C(=O)N[C@H](c1cn2ncc([C@H](NC(=O)C(C)CC(F)(F)F)C3CC3)cc2n1)C1CCC(F)(F)CC1` (single isomer, unassigned) [Example 346, N—((S)-(7-((R)-Cyclopropyl((R*)-4,4,4-trifluoro-2-methylbutanamido)methyl)imidazo[1,2-b]pyridazin-2-yl)(4,4-difluorocyclohexyl)methyl)-4-methyl-1,2,5-oxadiazole-3-carboxamide], the IC50 is 150 nM in experiment [1] and 440 nM in experiment [2].
